From patent publication US9662339B2, “Benzodioxane inhibitors of leukotriene production for combination therapy” (Boehringer Ingelheim International GmbH, priority 2012, dated 2017)

Biological target: human LTA4 hydrolase (Homo sapiens (Human), UniProt P09960)
Test: LTA4H Enzyme assay (cleavage of Arg-AMC, fluorescence)
Assay type: biochemical
Conditions: LTA4H Enzyme 1 nM, Arg-AMC substrate 50 μM, room temperature 1 h
Experimental: The compounds of the invention are assessed for the ability to interact with human LTA4 hydrolase in an enzymatic assay that measures the ability of the enzyme to cleave the peptide bond of arginyl-aminomethylcoumarin (Arg-AMC). LTA4H Enzyme (1 nM final), Arg-AMC substrate (50 μM final), and compound are combined in a reaction buffer (50 mM Tris-HCl (pH 7.5), 100 mM KCl, 0.5% bovine serum albumin) at room temperature for 1 h. The formation of product is assessed by measuring the fluorescence of aminomethylcoumarin product (excitation wavelength 380 nm/emission wavelength 460 nm).

human LTA4 hydrolase, sequence (P09960 whole entry): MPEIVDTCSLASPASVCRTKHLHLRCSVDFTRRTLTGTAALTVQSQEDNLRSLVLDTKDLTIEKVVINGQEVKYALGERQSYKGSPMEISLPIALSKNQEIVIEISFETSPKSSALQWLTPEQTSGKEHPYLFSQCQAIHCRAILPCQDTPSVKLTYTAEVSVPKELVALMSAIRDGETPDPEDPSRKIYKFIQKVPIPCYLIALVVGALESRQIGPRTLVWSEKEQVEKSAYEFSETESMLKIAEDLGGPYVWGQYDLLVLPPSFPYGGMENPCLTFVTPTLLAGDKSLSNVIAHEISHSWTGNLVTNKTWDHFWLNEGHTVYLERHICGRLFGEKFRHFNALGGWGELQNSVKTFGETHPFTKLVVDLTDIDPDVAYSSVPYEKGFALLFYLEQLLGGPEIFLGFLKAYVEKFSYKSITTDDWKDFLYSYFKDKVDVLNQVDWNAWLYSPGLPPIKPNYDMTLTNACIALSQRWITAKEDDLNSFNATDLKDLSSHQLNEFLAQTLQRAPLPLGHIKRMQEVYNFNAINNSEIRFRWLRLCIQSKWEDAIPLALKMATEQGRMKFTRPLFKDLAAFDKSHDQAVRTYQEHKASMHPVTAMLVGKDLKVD

IC50	SMILES
1.59 nM	O=C1NCCC12CCN(Cc1ccc([C@@H]3COc4ccccc4O3)cc1)CC2 [Example 195, 8-[(R)-4-(2,3-Dihydro-benzo[1,4]dioxin-2-yl)-benzyl]-2,8-diaza-spiro[4.5]decan-1-one]
1.05 nM	O=C(C1CCN(Cc2ccc(C3COc4ccccc4O3)cc2)CC1)N1CCOCC1 (racemic) [Example 37, {1-[4-(2,3-dihydro-1,4-benzodioxin-2-yl)benzyl]piperidin-4-yl}(morpholin-4-yl)methanone]
0.43 nM	OC1CCN(Cc2ccc([C@H]3COc4ccccc4O3)cc2)CC1 [Example 192, (S)-1-[4-(2,3-Dihydro-benzo[1,4]dioxin-2-yl)-benzyl]-piperidin-4-ol]
2.69 nM	c1ccc2c(c1)OC[C@@H](c1ccc(CN3CCCC3)cc1)O2 [Example 197, 1-[(R)-4-(2,3-dihydro-benzo[1,4]dioxin-2-yl)-benzyl]-pyrrolidine]
1.14 nM	CN(C)C(=O)CC1CCN(Cc2ccc(C3COc4ccccc4O3)cc2)CC1 (centres unmarked) [Example 38, 2-{1-[4-(2,3-dihydro-1,4-benzodioxin-2-yl)benzyl]piperidin-4-yl}-N,N-dimethylacetamide]
24.8 nM	N#CC1CN(Cc2ccc(C3COc4ccccc4O3)cc2)C1 (centres unmarked) [Example 46, 1-[4-(2,3-dihydro-1,4-benzodioxin-2-yl)benzyl]azetidine-3-carbonitrile]
0.75 nM	O=C(NCCO)C1CCN(Cc2ccc(C3COc4ccccc4O3)cc2)CC1 (racemic) [Example 52, 1-[4-(2,3-dihydro-1,4-benzodioxin-2-yl)benzyl]-N-(2-hydroxyethyl)piperidine-4-carboxamide]
0.82 nM	CN(C)C(=O)C1CCN(Cc2ccc(C3COc4ccccc4O3)cc2)CC1 (centres unmarked) [Example 51, 1-[4-(2,3-dihydro-1,4-benzodioxin-2-yl)benzyl]-N,N-dimethylpiperidine-4-carboxamide]
0.42 nM	NC(=O)NC1CCN(Cc2ccc(C3COc4ccccc4O3)cc2)CC1 (racemic) [Example 53, 1-{1-[4-(2,3-dihydro-1,4-benzodioxin-2-yl)benzyl]piperidin-4-yl}urea]
5.35 nM	OC1CCN(Cc2ccc([C@@H]3COc4ccccc4O3)cc2)CC1 [Example 193, (R)-1-[4-(2,3-Dihydro-benzo[1,4]dioxin-2-yl)-benzyl]-piperidin-4-ol]
5.93 nM	c1cncc(CNCc2ccc(C3COc4ccccc4O3)cc2)c1 (centres unmarked) [Example 54, 1-[4-(2,3-dihydro-1,4-benzodioxin-2-yl)phenyl]-N-(pyridin-3-ylmethyl)methanamine]
2.14 nM	CS(=O)(=O)C1CCN(Cc2ccc(C3COc4ccccc4O3)cc2)CC1 (centres unmarked) [Example 39, 1-[4-(2,3-dihydro-1,4-benzodioxin-2-yl)benzyl]-4-(methylsulfonyl)piperidine]
4.45 nM	COC1CN(Cc2ccc(C3COc4ccccc4O3)cc2)C1 (centres unmarked) [Example 36, 1-[4-(2,3-dihydro-1,4-benzodioxin-2-yl)benzyl]-3-methoxyazetidine]
0.9 nM	CCN(CC)Cc1ccc(C2COc3ccccc3O2)cc1 (centres unmarked) [Example 45, N-[4-(2,3-dihydro-1,4-benzodioxin-2-yl)benzyl]-N-ethylethanamine]
0.82 nM	c1ccc2c(c1)OCC(c1ccc(CN3CCCCCC3)cc1)O2 (centres unmarked) [Example 40, 1-[4-(2,3-dihydro-1,4-benzodioxin-2-yl)benzyl]azepane]
3.03 nM	F[C@H]1CCN(Cc2ccc(C3COc4ccccc4O3)cc2)C1 (stereo partly drawn) [Example 115, (3S)-1-[4-(2,3-dihydro-1,4-benzodioxin-2-yl)benzyl]-3-fluoropyrrolidine]
2.49 nM	O=C(O)C1CCCN(Cc2ccc(C3COc4ccccc4O3)cc2)C1 (centres unmarked) [Example 113, 1-[4-(2,3-dihydro-1,4-benzodioxin-2-yl)benzyl]piperidine-3-carboxylic acid]
0.77 nM	NC(=O)C1CCCN(Cc2ccc(C3COc4ccccc4O3)cc2)C1 (centres unmarked) [Example 114, 1-[4-(2,3-dihydro-1,4-benzodioxin-2-yl)benzyl]piperidine-3-carboxamide]
4.42 nM	c1ccc2c(c1)OCC(c1ccc(CNCC3CC3)cc1)O2 (centres unmarked) [Example 43, 1-cyclopropyl-N-[4-(2,3-dihydro-1,4-benzodioxin-2-yl)benzyl]methanamine]
0.6 nM	O=C1CCCN1CC1CCN(Cc2ccc(C3COc4ccccc4O3)cc2)CC1 (centres unmarked) [Example 50, 1-({1-[4-(2,3-dihydro-1,4-benzodioxin-2-yl)benzyl]piperidin-4-yl}methyl)pyrrolidin-2-one]
40.1 nM	c1ccc2c(c1)OC[C@@H](c1ccc(CN3CCOCC3)cc1)O2 [Example 199, 4-[(R)-4-(2,3-dihydro-benzo[1,4]dioxin-2-yl)-benzyl]-morpholine]
0.15 nM	O=C1NCCC12CCN(Cc1ccc([C@H]3COc4ccccc4O3)cc1)CC2 [Example 194, 8-[(S)-4-(2,3-Dihydro-benzo[1,4]dioxin-2-yl)-benzyl]-2,8-diaza-spiro[4.5]decan-1-one]
0.39 nM	c1ccc2c(c1)OC[C@H](c1ccc(CN3CCCC3)cc1)O2 [Example 196, 1-[(S)-4-(2,3-dihydro-benzo[1,4]dioxin-2-yl)-benzyl]-pyrrolidine]

Second part, the compound before the results:

SMILES	IC50
O=S1(=O)CCN(Cc2ccc(C3COc4ccccc4O3)cc2)CC1 (centres unmarked) [Example 7, 4-[4-(2,3-dihydro-1,4-benzodioxin-2-yl)benzyl]thiomorpholine 1,1-dioxide]	2.79 nM
OCC1CCN(Cc2ccc(C3COc4ccccc4O3)cc2)CC1 (centres unmarked) [Example 27, {1-[4-(2,3-dihydro-1,4-benzodioxin-2-yl)benzyl]piperidin-4-yl}methanol]	1.2 nM
O=C1NC(=O)C2(CCN(Cc3ccc(C4COc5ccccc5O4)cc3)CC2)N1 (centres unmarked) [Example 35, 8-[4-(2,3-dihydro-1,4-benzodioxin-2-yl)benzyl]-1,3,8-triazaspiro[4.5]decane-2,4-dione]	0.26 nM
O[C@@H]1CCN(Cc2ccc(C3COc4ccccc4O3)cc2)C1 (stereo partly drawn) [Example 34, (3R)-1-[4-(2,3-dihydro-1,4-benzodioxin-2-yl)benzyl]pyrrolidin-3-ol]	1.89 nM
OCCCC1CCN(Cc2ccc(C3COc4ccccc4O3)cc2)CC1 (centres unmarked) [Example 29, 3-{1-[4-(2,3-dihydro-1,4-benzodioxin-2-yl)benzyl]piperidin-4-yl}propan-1-ol]	2.04 nM
c1cnc2c(c1)OCC(c1ccc(CN3CCOCC3)cc1)O2 (racemic) [Example 18, 3-[4-(morpholin-4-ylmethyl)phenyl]-2,3-dihydro[1,4]dioxino[2,3-b]pyridine]	1.14 nM
O=C(O)CCCC1CCN(Cc2ccc(C3COc4ccccc4O3)cc2)CC1 (racemic) [Example 26, 4-{1-[4-(2,3-dihydro-1,4-benzodioxin-2-yl)benzyl]piperidin-4-yl}butanoic acid]	0.43 nM
c1ccc2c(c1)OCC(c1ccc(CN3CCOCC3)cc1)O2 (centres unmarked) [Example 2, 4-[4-(2,3-dihydro-1,4-benzodioxin-2-yl)benzyl]morpholine]	2.45 nM
O=C1CCCN1CC1CCCN(Cc2ccc(C3COc4ccccc4O3)cc2)C1 (racemic) [Example 10, 1-({1-[4-(2,3-dihydro-1,4-benzodioxin-2-yl)benzyl]piperidin-3-yl}methyl)pyrrolidin-2-one]	0.75 nM
O[C@H]1CCN(Cc2ccc(C3COc4ccccc4O3)cc2)C1 (mixture of isomers) [Example 9, (3S)-1-[4-(2,3-dihydro-1,4-benzodioxin-2-yl)benzyl]pyrrolidin-3-ol]	1.49 nM
CC(C)(C)NCc1ccc(C2COc3ccccc3O2)cc1 (centres unmarked) [Example 23, N-[4-(2,3-dihydro-1,4-benzodioxin-2-yl)benzyl]-2-methylpropan-2-amine]	5.2 nM
c1ccc2c(c1)OCC(c1ccc(CN3CCCOCC3)cc1)O2 (centres unmarked) [Example 32, 4-[4-(2,3-dihydro-1,4-benzodioxin-2-yl)benzyl]-1,4-oxazepane]	1.8 nM
c1cnc2c(c1)OCC(c1ccc(CN3CCCC3)cc1)O2 (racemic) [Example 15, 3-[4-(pyrrolidin-1-ylmethyl)phenyl]-2,3-dihydro[1,4]dioxino[2,3-b]pyridine]	0.36 nM
CN1CCCN(Cc2ccc(C3COc4ccccc4O3)cc2)CC1 (centres unmarked) [Example 30, 1-[4-(2,3-dihydro-1,4-benzodioxin-2-yl)benzyl]-4-methyl-1,4-diazepane]	1.77 nM
O=C(CNCc1ccc(C2COc3ccccc3O2)cc1)N1CCCC1 (centres unmarked) [Example 12, 2-{[4-(2,3-dihydro-1,4-benzodioxin-2-yl)benzyl]amino}-1-(pyrrolidin-1-yl)ethanone]	10.2 nM
CC(=O)N1CCN(Cc2ccc(C3COc4ccccc4O3)cc2)CC1 (centres unmarked) [Example 11, 1-{4-[4-(2,3-dihydro-1,4-benzodioxin-2-yl)benzyl]piperazin-1-yl}ethanone]	2.95 nM
COCCN(C)Cc1ccc(C2COc3ccccc3O2)cc1 (centres unmarked) [Example 33, N-[4-(2,3-dihydro-1,4-benzodioxin-2-yl)benzyl]-2-methoxy-N-methylethanamine]	3.19 nM
CNC(=O)C1CCN(Cc2ccc(C3COc4ccccc4O3)cc2)CC1 (racemic) [Example 25, 1-[4-(2,3-Dihydro-benzo[1,4]dioxin-2-yl)-benzyl]-piperidine-4-carboxylic acid methylamide]	0.76 nM
c1ccc2c(c1)OCC(c1ccc(CN3CCn4cnnc4C3)cc1)O2 (racemic) [Example 16, 7-[4-(2,3-dihydro-1,4-benzodioxin-2-yl)benzyl]-5,6,7,8-tetrahydro[1,2,4]triazolo[4,3-a]pyrazine]	2.32 nM
CC1(C)CCN(Cc2ccc(C3COc4ccccc4O3)cc2)CC1 (centres unmarked) [Example 3, 1-[4-(2,3-dihydro-1,4-benzodioxin-2-yl)benzyl]-4,4-dimethylpiperidine]	2.57 nM
O=S1(=O)CCN(Cc2ccc(C3COc4cccnc4O3)cc2)CC1 (racemic) [Example 17, 3-{4-[(1,1-dioxidothiomorpholin-4-yl)methyl]phenyl}-2,3-dihydro[1,4]dioxino[2,3-b]pyridine]	0.77 nM
